How the values were obtained:
AdoMetDC = target: T1, AdoMetDC (Homo sapiens, UniProt P17707); assay: AdoMetDC enzyme activity in lysates of inhibitor-treated NB cells; assay type: cell-based; details: for Specific enzyme activity ADOMETDC: DFMO = 5 mM, SAM486A = 10 μM, mean ± SD
T1 construct: processed AdoMetDC α chain (31 kDa) proteins were detected at the expected size in LAN-1 and NMB-7 cells; endogenous in cells; host or cells: LAN-1 and NMB-7 human neuroblastoma cells (LAN-1 only for the Western blot of treated cells)
T1 sequence (P17707 68-334 limits assumed): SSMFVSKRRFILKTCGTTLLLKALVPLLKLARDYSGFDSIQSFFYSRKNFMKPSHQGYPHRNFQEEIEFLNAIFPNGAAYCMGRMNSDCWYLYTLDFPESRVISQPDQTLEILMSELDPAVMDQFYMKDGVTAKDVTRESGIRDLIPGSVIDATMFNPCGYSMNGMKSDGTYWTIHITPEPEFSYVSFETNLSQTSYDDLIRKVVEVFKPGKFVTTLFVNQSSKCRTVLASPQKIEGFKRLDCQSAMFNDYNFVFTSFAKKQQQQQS
T1 sequence (P17707 1-67 limits assumed): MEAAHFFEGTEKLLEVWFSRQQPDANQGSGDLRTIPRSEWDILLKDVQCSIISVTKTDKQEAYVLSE
Protocol: Under identical experimental conditions, AdoMetDC activity was determined.
(§1) Human NB cell lines were provided by Dr. Robert Seeger (LAN-1; University of California, Los Angeles, Calif.), Dr. Nai-Kong Cheung (NMB-7; Memorial Sloan-Kettering Cancer Center, NY), and the American Type Culture Collection (SK-N-SH; ATCC, Manassas, Va.). Cells were maintained in RPMI 1640 (Biosource, Rockeville, Md.) containing 10% heat-inactivated fetal bovine serum (FBS) (Invitrogen, Carlsbad, Calif.), penicillin (100 IU/ml) and streptomycin (100 μg/ml). If cells were treated with exogenous Spd, 1 mM of aminoguanidine was included as an inhibitor of serum polyamine oxidation. […] For growth and proliferation inhibition, polyamine pool, and cell cycle studies, 10 μM Spd was added together with inhibitors, and cells were assayed on days 2 and/or 3.
ODC and AdoMetDC enzyme activities were determined using a standard assay known in the art. In brief, NB cells were washed twice with ice-cold PBS and harvested in 50 mM sodium phosphate buffer (pH 7.2), 0.1 mM EDTA, 2.5 mM DTT, supplemented with 1× protease inhibitor cocktail (Roche Molecular Biochemicals, Indianapolis, Ind.). For the measurement of AdoMetDC activity, cells were harvested in the above buffer supplemented with 2.5 mM Put. Cells were lysed by three freeze/thaw cycles and cell lysates were prepared by centrifugation for 20 minutes at 14,000 rpm and 4° C. ODC activity was measured in a reaction mixture that contained 20 μM L-[1-^14C]ornithine (47.70 mCi/mmol; NEN Life Science Products, Boston, Mass.). AdoMetDC activity was assayed in a reaction mixture that contained 8.2 μM S-adenosyl-L-[carboxy-^14C]methionine (58.0-61.0 mCi/mmol; Amersham Biosciences, Piscataway, N.J.) and 140.1 μM cold S-adenosylmethionine. […] Untreated or SAM486A-treated LAN-1 extracts were assayed for AdoMetDC activity after multiple rounds of sequential dilution with harvest buffer followed by concentration of the extract (Centricon YM-10, Millipore Corporation, Bedford, Mass.) to remove the inhibitor.

LAN-1 cells [1] = assay: Cell cycle phase distribution (propidium iodide), LAN-1; assay type: cell-based, human; details: DFMO = 5 mM, SAM486A = 10 μM, Spd = 10 μM, mean ± SD
Text: This profile, which is typical for cell cycle arrest at G1, was enhanced by the combination of both inhibitors, with the majority of cells in G1 (˜71-73%), a reduced number of cells in S phase (˜20-28%), and a small portion in G2/M (˜2-7%).
as §1

LAN-1 cells [2] = assay: Cell growth and proliferation (cell number) and morphology, LAN-1; assay type: cell-based, human; details: LAN-1, 3 days; 5 mM DFMO, 10 μM SAM486A
Protocol: (§2) Cell numbers are expressed as percentage (%) of control cell growth and proliferation. Each sample was measured in duplicate and the data represent the mean of three separate determinations±SD. The observed growth and proliferation inhibition of LAN-1 and NMB-7 cells was accompanied by dramatic alterations in cell morphology (FIG. 4b). […] On day 3, both untreated and treated cells were washed free of inhibitor by washing twice with PBS, reseeded in new medium (NM) (solid black arrow) without inhibitors at the starting cell density (dashed black arrow) and the experiment was continued for an additional 7 days. While the untreated LAN-1 and NMB-7 cells grew normally and reached similar cell densities after an additional 3 days (day 6 of the experiment), the initially treated LAN-1 and NMB-7 cells resumed proliferation only slowly and reached about 30% and 58% of control cell growth and proliferation, respectively, on day 10 of the experiment (FIG. 6). Cell numbers were determined using a hemocytometer and trypan blue reagent, and each data point is representative of three separate determinations±SD. […] (not shown). Human NB cell lines were provided by Dr. Robert Seeger (LAN-1; University of California, Los Angeles, Calif.), Dr. Nai-Kong Cheung (NMB-7; Memorial Sloan-Kettering Cancer Center, NY), and the American Type Culture Collection (SK-N-SH; ATCC, Manassas, Va.). […]

NMB-7 cells = assay: Cell growth and proliferation (cell number) and morphology, NMB-7; assay type: cell-based, human; details: NMB-7, 3 days; 5 mM DFMO, 10 μM SAM486A
Protocol: as §2

[3] = SAM486A, Phase II, relapsed or refractory non-Hodgkin's lymphoma; cited from earlier work

Row | Structure (SMILES) | Specific enzyme activity ADOMETDC (AdoMetDC; LAN-1, 2 days after treatment) | Specific enzyme activity ADOMETDC (AdoMetDC; NMB-7, 2 days after treatment) | Cell cycle G1 (LAN-1 cells [1]; LAN-1, day 2) | Cell cycle G2/M (LAN-1 cells [1]; LAN-1, day 2) | Cell cycle S (LAN-1 cells [1]; LAN-1, day 2) | Cell cycle G1 (LAN-1 cells [1]; LAN-1, day 3) | Cell cycle G2/M (LAN-1 cells [1]; LAN-1, day 3) | Cell cycle S (LAN-1 cells [1]; LAN-1, day 3) | cell morphology (FIG. 4b) (LAN-1 cells [2]) | cell morphology (FIG. 4b) (NMB-7 cells) | increase of measured AdoMetDC activity after sequential dilution and concentration of lysates to remove residual inhibitor (AdoMetDC; SAM486A-treated LAN-1 extracts, data not shown) | most frequent side effects [3]
1 | NCCC[C@](N)(C(=O)O)C(F)F [DFMO, α-difluoromethylornithine] | 689 ± 94 % OF CONTROL | 582 ± 67 % OF CONTROL | 62.1 ± 10.4 % TOTAL CELLS | 11.5 ± 3.0 % TOTAL CELLS | 26.4 ± 7.5 % TOTAL CELLS | 63.1 ± 12.2 % TOTAL CELLS | 6.2 ± 4.1 % TOTAL CELLS | 30.8 ± 8.2 % TOTAL CELLS | changed into spindle-like cells with neurite-like extensions | formed large polynucleate cell aggregates with only very short extensions |  | 
2 | N=C(N)c1cccc2c1CC/C2=N\N=C(N)N [SAM486A, 4-amidinoindan-1-one 2′-amidinohydrazone] | 169 ± 9 % OF CONTROL | 200 ± 16 % OF CONTROL | 58.7 ± 8.3 % TOTAL CELLS | 9.6 ± 3.2 % TOTAL CELLS | 31.7 ± 6.8 % TOTAL CELLS | 53.3 ± 5.1 % TOTAL CELLS | 9.3 ± 2.0 % TOTAL CELLS | 37.4 ± 3.5 % TOTAL CELLS |  |  | ~100 fold | nausea, vomiting, diarrhea, asthenia, abdominal pain, and flushing
